Eight compounds from patent publication US20260306460A1, “COMPOSITION FOR REMOVING AND INHIBITING SENESCENT CELLS, AND USES THEREOF” (LIFECEUTIX CO., LTD., priority 2023, published 2026) can be followed below.

Assay type in all cases: in vivo, mouse
Test [1] concerns naturally aged C57BL6J mice. Description: Kidney damage markers (urea, creatinine, Agtr1a mRNA) in naturally aged mice, Example 21-9, Table 24. The note with it: untreated aged = 100%; for Agtr1a mRNA (%): qRT-PCR; for Creatinine (%) / Urea (%): serum. Here is the method: 22-month-old female C57BL6J mice (KRIBB Laboratory Animal Resource Center) were acclimated to the experimental environment for one week, after which the aged mice were randomly assigned to experimental and control groups. Eight-week-old, non-aged mice served as controls. LX-403 was mixed in a 10% ethanol solution of PEG400 and administered orally at a concentration of 25 mg/kg daily for 21 days, or administered to the skin, joints, or eyes at a concentration of 1 μM. LX-1801 was mixed in distilled water with 4% DMSO, 30% PEG300, and 5% Tween80 and administered to the skin, joints, or eyes at a concentration of 0.4 μM daily for 21 days. LX-2001 was mixed in PBS and administered to the skin, joints, or eyes at a concentration of […] daily for 21 days. LX-2002 was mixed in distilled water with 4% DMSO, 30% PEG300, and 5% Tween80 and administered to the skin, joints, or eyes at a concentration of 2 μM daily for 21 days. […] LX-2005 was mixed in distilled water with 4% DMSO, 30% PEG300, and 5% Tween80 and administered to the skin, joints, or eyes at a concentration of 90 μM daily for 21 days. LX-2007 was mixed in distilled water with 4% DMSO, 30% PEG300, and 5% Tween80 and administered to the skin, joints, or eyes at a concentration of 90 μM daily for 21 days. […] LX-3002 was mixed in distilled water with 4% DMSO, 30% PEG300, and 5% Tween80 and administered orally at a concentration of 10 mg/kg daily for 21 days. […] LX-5411 was mixed in 5% PBS and administered orally at a concentration of 10 mg/kg daily for 21 days or administered to the skin, joints, or eyes at a concentration of 3 μM. LX-5701 was mixed in PBS and administered orally at a concentration of 360 mg/kg daily for 21 days. LX-6807 was mixed in saline and administered intraperitoneally at a concentration of 1 mg/kg daily for 21 days. LX-2101 or LX-2102 was mixed in PBS solution with 5% DMSO and administered intraperitoneally at a concentration of 20 mg/kg or 10 mg/kg, respectively, daily for 21 days. The control group received only the solution in the same volume. After the end of drug administration, the methods described in each example below were performed.
The levels of urea and creatinine, markers of kidney damage, in serum collected from mice were measured spectrophotometrically using kits (BioAssay Systems and Sigma). Additionally, the amount of Agtr1a mRNA, a marker of kidney damage, was measured using qRT-PCR as described in Example 7-2 of WO2023-085787 A1. […] The amount of each factor after aging was calculated as 100% and compared with the amount of each factor after test compound treatment.
(Quantitative PCR measures a nucleic acid by following its amplification.)

Test [2] concerns cigarette smoke-induced COPD C57BL6J mice. The experiment in a line: Cigarette smoke COPD in mice (p16, IL6 mRNA, alveoli size), Example 25, Table 49. The note with it: for Airspace enlargement: average size of alveoli, untreated 38.7 (±0.6); for IL6 mRNA / p16 mRNA: lung, daily for 21 days, untreated 100%. Here is the method: Eight-week-old male C57BL6J mice (KRIBB Laboratory Animal Resource Center) were acclimated to the experimental environment for one week. After exposure to standard cigarette smoke (costa monitoring cigarette 7) for 5 hours per day, 5 days per week for 6 months, chronic obstructive pulmonary disease (COPD) was induced. Mice with induced COPD were randomly assigned to experimental and control groups. […] LX-3002 was mixed in distilled water with 4% DMSO, 30% PEG300, 5% tween80 and administered orally at a concentration of 10 mg/kg daily for 21 days. LX-5701 was mixed in PBS and administered orally at a concentration of 360 mg/kg daily for 21 days. LX-6807 was mixed in saline and administered intraperitoneally at a concentration of 1 mg/kg daily for 21 days. The control group received only the solution in the same volume. After the end of drug administration, mice were sacrificed in the same manner as in Example 7-2 of WO2023-085787 A1, RNA was extracted from lung tissue, and qRT-PCR (quantitative real-time PCR) was performed and analyzed using the synthesized cDNA. […] The amount of mRNA after aging was calculated as 100%, and the results after treatment with the test compound were compared. Furthermore, paraffin sections were stained with hematoxylin/eosin (H/E), and the size of alveoli was measured under a light microscope to assess the degree of lung function impairment.

The test system of a further test is naturally aged mice. Description: Open field test in naturally aged mice, Example 15. The note with it: untreated aged = 100%; 5 days; doses as p16 mRNA. Here is the method: In the same manner as in Example 7-1 of WO2023-085787 A1, naturally aged mice were administered LX-405 (5% DMSO in PBS solution, 10 mg/kg, intraperitoneal administration), LX-801 (PBS, 100 mg/kg, intraperitoneal administration), LX-1102 (0.5% CMC-Na solution, 100 mg/kg, oral administration), LX-1801 (PBS, 50 mg/kg, intraperitoneal administration), LX-2101 (0.5% CMC-Na solution, 10 mg/kg, intraperitoneal administration), and LX-3403 (mouse anti-PD-1 antibody (BioXcell), 100 μg, intraperitoneal administration) for 5 days under the following conditions. The control group was administered only the solution in the same volume. After drug administration was completed, the method described in each Example below was performed. The mouse was sacrificed in the same manner as Example 7-2 and 7-6 of WO2023-085787 A1. Total RNA was extracted from liver tissue, and qRT-PCR was performed and analyzed using synthesized cDNA. […] The mRNA amounts of p16, MMP3, and IL6 after natural aging were induced were calculated as 100% and compared them with the mRNA amounts of p16, MMP3, and IL6 after treatment with the test compound. Furthermore, an open field test was performed to analyze aging-related frailty in mice using the same method as Example 7-7 of WO2023-085787 A1. […] The amount of activity evaluated after inducing aging was calculated as 100% and compared it with the amount of activity evaluated after treatment with the test compound.

Regarding `Cc1cccc([C@H](C)c2cnc[nH]2)c1C` [LX-6807, Dexmedetomidine], in test [1], the “Agtr1a mRNA (%)” value is given as 37 (±4.0) %, the “Creatinine (%)” value is listed as 57 (±2.0) % and the “Urea (%)” value is 68 (±2.7) %. In test [2], the Airspace enlargement is recorded as 30.4 (±1.5) μm, the “IL6 mRNA” value was 48 (±5.6) % and the “p16 mRNA” value was 68 (±2.4) %.
Regarding `CC1(C)CC[C@]2(NC(=O)C(C)(F)F)CC[C@]3(C)[C@H](C(=O)C=C4[C@@]5(C)C=C(C#N)C(=O)C(C)(C)[C@@H]5CC[C@]43C)[C@@H]2C1` [LX-2101, Omaveloxolone], the “Open Field Test Time in Center” value in the test with naturally aged mice is given as 215.3 (±30.8) %.
As to `O=C1C2CCN(CC2)C1CNC(=O)C(F)(F)F` (stereo not shown) [LX-5701], in test [1], the “Agtr1a mRNA (%)” value is given as 44 (±2.3) %, the “Creatinine (%)” value was 68 (±6.3) % and the “Urea (%)” value is 71 (±4.0) %. Moreover, in test [2], the Airspace enlargement is recorded as 31.9 (±2.4) μm, the “IL6 mRNA” value was 59 (±16.8) % and the “p16 mRNA” value was 70 (±7.8) %.
Regarding Tocofersolan [LX-3001], in test [1], the “Agtr1a mRNA (%)” value is 61 (±2.0) %, the “Creatinine (%)” value was 75 (±3.2) % and the “Urea (%)” value is 81 (±5.4) %. In test [2], the Airspace enlargement is 37.1 (±2.7) μm, the “IL6 mRNA” value is listed as 79 (±9.9) % and the “p16 mRNA” value was 83 (±5.0) %.
Turning to `S=C(N/N=C1\CCCc2cccnc21)N1CCN(c2ccccn2)CC1` [LX-801], the “Open Field Test Time in Center” value with naturally aged mice is given as 241.8 (±17.9) %.
With `CCCC\C=C/C=C/C=C\CCCCCCCC(=O)O` [LX-2707, Punicic acid], in test [1], the “Agtr1a mRNA (%)” value was 68 (±3.3) %, the “Creatinine (%)” value is given as 73 (±4.3) % and the “Urea (%)” value was 78 (±3.1) %. Further, in test [2], the Airspace enlargement is 36.4 (±1.9) μm, the “IL6 mRNA” value is on record as 76 (±6.7) % and the “p16 mRNA” value is listed as 78 (±5.5) %.
With `C[C@@H]1CC[C@@]23C[C@H](O)C(=O)[C@@]2(O)[C@]1(C)[C@H](OC(=O)CCl)C[C@@H](C1=CCn2c(=O)n(-c4ccccc4)c(=O)n2C1)[C@@H]3C` [LX-1801, (2S,3aS,4S,5R,7R,8S,8aS,11R)-7-(1,3-Dioxo-2-phenyl-2,3,5,8-tetrahydro-1H-[1,2,4]triazolo[1,2-a]pyridazin-6-yl)-2,3a-dihydroxy-4,8,11-trimethyl-3-oxooctahydro-1H-4,8a-propanoazulen-5-yl 2-Chloroacetate], the “Open Field Test Time in Center” value with naturally aged mice is recorded as 252.9 (±28) %.
Same read-out and setting: the figure for `COC(=O)c1ccc([C@H]2c3[nH]c4ccccc4c3C[C@H](C(=O)OC)N2C(=O)CCl)cc1` [LX-405] is 201.5 (±18.3) %.
